Data published in publication PMC8624133, “10th Trends in Medical Mycology Held on 8 to 11 October 2021, Aberdeen, Scotland, Organized by the European Confederation of Medical Mycology (ECMM)” (Journal of Fungi, 2021).
≈ marks a conversion by molar mass, not a printed value. Where two headings read alike, the source gives them in different places.

Columns and labels:
[1] = tested on: C. albicans SC5314 experimental population; assay: Experimental evolution under fluconazole, azole susceptibility; assay type: cell-based; conditions: Candida albicans
[2] = tested on: Cryptococcus neoformans var grubii; assay: microbe, parasite or virus in culture; assay type: cell-based; conditions: read-out: Minimal Inhibitory Concentration (MIC)
C. albicans = assay: […] candidemia survey, susceptibility according to CLSI; assay type: cell-based, Candida albicans
Candida auris isolates = assay: microbe, parasite or virus in culture; assay type: cell-based; conditions: Candidozyma auris; […]; IQR given; read-out: median MIC
[3] = tested on: clinical Trichophyton spp. isolates; assay: Checkerboard microdilution based on EUCAST; assay type: cell-based; conditions: for MIC: Trichophyton, read-out: geometric mean MIC, drug alone
Procedure: Materials & Methods: The combination has been tested against 9 terbinafine-susceptible and 7 terbinafine-resistant clinical Trichophyton spp. isolates from India. In vitro interactions were evaluated by a microdilution checkerboard technique based on the EUCAST reference method for antifungal susceptibility testing. The mode of interaction between terbinafine and itraconazole was determined by the fractional inhibitory concentration index (FICI). The FICI was interpreted as FICI ≤ 0.5 = synergy, FICI > 0.5–4 = no interaction, and FICI > 4.0 = antagonism.

yeasts = assay: CLSI M27-A3 MIC; assay type: cell-based
[4] = tested on: sessile cells of yeast mono and dual-species biofilms; assay: MIC of catheter yeast isolates, mono and dual-species biofilms; assay type: cell-based; conditions: range
C. auris isolates = assay: AmB Etest; assay type: cell-based, Candida auris; conditions: for MIC: Candidozyma auris
Procedure: Methods: A total of 313 C. auris isolates representing five geographic clades (I—South Asian; II—East Asian; III—South African; IV—South American; V—Iranian) were investigated in this study. Antifungal susceptibility testing (AFST) with AmB was performed with Etest according to the manufacturer instructions. […] Ergosterol biosynthesis pathway genes ERG2 (C-8 sterol isomerase), ERG3 (C-5 sterol desaturase), ERG6 (sterol 24-C-methyltransferase), and ERG11 (lanosterol 14-α-demethylase) were amplified and sequenced. […] AmB susceptibility was then determined for the transformed strain.

C. glabrata = assay: Antifungal susceptibility testing of blood culture isolate; assay type: cell-based, Candida glabrata; conditions: Nakaseomyces glabratus
From the text: Case presentation: A patient with a surgically corrected Tetralogy of Fallot and pulmonary valve replacement (BioPulmonic Conduit) was admitted to the cardiology ward for treatment of their progessively worsening symptomatic heart failure. Their medical history reports multiple other co-morbidities including supravalvular (prothetic pulmonary valve) stenosis, supraventricular tachycardia, atrial fibrillation, diabetes mellitus type I, and intellectual disability. No history of IV drug use or recent immunosuppressive therapy was reported. On admission they received diuretic treatment and a percutaneous intervention was planned to treat the supravalvular pulmonary stenosis. However, ten days after admission they developed fever (40.5 °C) with elevated C-reactive protein (237.9 mg/L) and leukocytosis (14.0 × 10^9/L). […] Anidulafungine IV was started and follow-up bloodcultures were taken routinely. The patient improved clinically and their inflammation markers normalized. However, the bloodcultures were persistently positive, albeit with periods of negative cultures, despite adequate treatment with high-dose anidulafungin 200 mg IV daily. International guidelines recommend surgery to treat Candida prostethic valve infective endocarditis and/or long-term suppressive therapy with antifungal drugs. […]

Rhizopus arrhizus = assay: E test; assay type: cell-based
Asp. fumigatus = assay: Triazole resistance agar screening, four-well plate; conditions: RPMI agar, 1 µg/mL, 7 isolates
Procedure: All the isolates were identified phenotypically. […] Fungal spores were suspended in normal saline (0.85%) and adjusted to 0.5 McFarland and 50 μL was plated in each well. […] Plates were incubated at 35–37 °C for 72 h in ambient air. The presence or absence of growth was observed visually at 24 h, 48 h, and 72 h.

F. solani (FS) biofilms = assay: Mature biofilm damage, XTT metabolic reduction assay; conditions: Fusarium solani, 24 h, read-out: BF MIC50
[5] = tested on: Scedosporium apiospermum (SA) mature biofilms; assay: XTT biofilm damage assay; assay type: cell-based
Procedure: (§1) Materials & Methods: 10^5 cfu/mL of FS (n = 3) and SA (n = 3) BF-producing strains were incubated in RPMI at 37 °C for 48 h. PMN were isolated from healthy volunteers by dextran sedimentation/ficoll centrifugation. BF were incubated with PMN at effector-to-target ratio 5:1 alone or in combination with L-AMB (FS: 0.25/2/32 mg/L; SA: 0.25/1/16 mg/L) or VRC (FS: 8/64 mg/L; SA: 0.5/32 mg/L) at 37 °C/5% CO2 for 24 h. Antifungal activity was assessed by XTT reduction assay of metabolic activity. […] The % damage of the PMN+drug treatment was compared to that of PMN or drug alone by ANOVA (n = 8, p < 0.05).

[6] = tested on: Fusarium solani (FS) mature biofilms; assay: XTT biofilm damage assay; assay type: cell-based
Procedure: as §1

[7] = Therapeutic drug monitoring of VRC plasma levels; assay type: in vivo, human
Procedure: Materials & Methods: Patients are aged over 18 years and given antifungal therapy between January 2019–November 2020 in the Hacettepe University Hospitals were included. The study was approved by the University Clinical Research Ethics Committee. Demographics and antifungal treatment periods of the patients were analyzed retrospectively. As of January 2020, VRC plasma levels had started to be analyzed on a weekly basis in the study setting. Plasma VRC levels (target range: 1–5.5 mg/L) were measured by using liquid chromatography—triple quadrupole mass spectrometer (Shimadzu LCMS-8040). The impact of TDM on appropriateness of VRC treatment were evaluated by the numbers of treatment switch and the use of oral route.

[8] = 7 terbinafine-resistant isolates
[9] = 9 terbinafine-susceptible isolates

OC(Cn1cncn1)(Cn1cncn1)c1ccc(F)cc1F [fluconazole]
MIC ([1]; SC5314): 0.5 µg/mL (≈ 1.63 µM) | MIC ([1]; SC5314, 168 h): 8 µg/mL (≈ 26.1 µM) | MIC [2]: > 32 µg/mL | non-susceptibility (C. albicans): 1% | MIC (Candida auris isolates): 48 µg/mL (≈ 157 µM)

CCC(C)n1ncn(-c2ccc(N3CCN(c4ccc(OCC5COC(Cn6cncn6)(c6ccc(Cl)cc6Cl)O5)cc4)CC3)cc2)c1=O (stereo not shown) [itraconazole]
MIC range, drug alone [3, 8]: 0.0625 to 0.5 µg/mL | MIC range, drug alone [3, 9]: 0.125 to 0.5 µg/mL | MIC [3, 8]: 0.19 µg/mL | MIC [3, 9]: 0.3 µg/mL | MIC (yeasts; four sensitive isolates): 0.03 µg/mL (≈ 0.0425 µM) | MIC (yeasts; the other isolates, drug resistance): 0.06 to 16 µg/mL (≈ 0.085 to 22.7 µM)

C[C@@H]1[C@H](O)[C@@H](C)/C=C/C=C/C=C/C=C/C=C/C=C/C=C/[C@H](O[C@@H]2O[C@H](C)[C@@H](O)[C@H](N)[C@@H]2O)C[C@@H]2O[C@](O)(C[C@@H](O)C[C@@H](O)[C@H](O)CC[C@@H](O)C[C@@H](O)CC(=O)O[C@H]1C)C[C@H](O)[C@H]2C(=O)O [amphotericin B]
MIC [4]: 0.25 to 8 µg/mL | isolates with AmB MIC values ≥2 mg/L (C. auris isolates; 19 of 313 isolates): 6.1% | MIC (C. auris isolates; read-out: AmB MIC, South African isolate SA18, ERG6 missing base pairs 52–543): 6 µg/mL (≈ 6.49 µM) | MIC (C. auris isolates; read-out: AmB MIC, susceptible strain after replacement with ERG6 of SA18): > 32 µg/mL | MIC (C. auris isolates; read-out: AmB MIC, susceptible strain with wild-type ERG6): 0.5 µg/mL (≈ 0.541 µM) | MIC (C. glabrata): 0.38 µg/mL (≈ 0.411 µM) | MIC (Rhizopus arrhizus): > 32 µg/mL

C[C@@H](c1ncncc1F)[C@](O)(Cn1cncn1)c1ccc(F)cc1F [voriconazole]
isolates with growth only in voriconazole well, n (%) (Asp. fumigatus; 48 h): 0 | isolates with growth only in voriconazole well, n (%) (Asp. fumigatus; 72 h): 3 (42.85) | MIC50 (F. solani (FS) biofilms): > 256 µg/mL | MIC50 ([5]; Scedosporium apiospermum, read-out: BF MIC50 (≥50% BF damage), XTT, 24 h, 37 °C): 32 µg/mL | BF damage ([5]; VRC 32 mg/L + PMN 5:1): 69.5 ± 3% | BF damage ([5]; VRC 32 mg/L alone): 61 ± 4% | MIC50 ([6]; Fusarium solani, read-out: BF MIC50 (≥50% BF damage), XTT, 24 h, 37 °C): > 256 µg/mL | interaction of drug+PMN vs drug alone ([6]; VRC 64 mg/L, PMN 5:1): antagonism | median plasma level (range) ([7]; 88 levels in 34 patients, LC-MS): 4.2 (0.2–18.1) mg/L | Adverse effects, n (%) ([7]; Subtherapeutic (<1 mg/L)): 0 (0.0) | Adverse effects, n (%) ([7]; Supratherapeutic (>5.5 mg/L)): 4 (13.8) | Adverse effects, n (%) ([7]; Therapeutic (1–5.5 mg/L)): 0 (0.0) | VRC-related adverse effects ([7]; all at supratherapeutic levels): Four | plasma levels at subtherapeutic range (<1 mg/L), n (%) ([7]; n = 88): 14 (15.9%) | plasma levels at supratherapeutic range (>5.5 mg/L), n (%) ([7]; n = 88): 29 (33.0%) | plasma levels at therapeutic range (1–5.5 mg/L), n (%) ([7]; n = 88): 45 (51.1%)
